Experimental data reported in patent US20260250290A1 (BRISTOL-MYERS SQUIBB COMPANY, priority 2023, published 2026).
Counter-ions that a name gives are not always drawn.

Target: T1, full length SGK1 (Homo sapiens, UniProt O00141)
T1 construct: 125 μM full length SGK1 (Life Technologies Part #PR7358A); purchased Life Technologies PR7358A
T1 sequence (O00141 1-431): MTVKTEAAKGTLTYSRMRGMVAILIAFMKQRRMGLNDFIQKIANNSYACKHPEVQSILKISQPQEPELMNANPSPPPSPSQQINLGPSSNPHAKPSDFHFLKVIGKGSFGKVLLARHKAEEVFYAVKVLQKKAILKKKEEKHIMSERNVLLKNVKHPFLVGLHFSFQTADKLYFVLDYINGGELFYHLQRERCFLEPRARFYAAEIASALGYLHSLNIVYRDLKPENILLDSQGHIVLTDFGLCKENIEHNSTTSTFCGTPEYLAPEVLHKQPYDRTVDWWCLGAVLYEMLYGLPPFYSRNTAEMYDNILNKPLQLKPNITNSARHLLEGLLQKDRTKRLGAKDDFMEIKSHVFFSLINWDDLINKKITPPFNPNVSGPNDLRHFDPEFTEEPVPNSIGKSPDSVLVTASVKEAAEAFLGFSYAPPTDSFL
Assay: SGK1 inhibition Assay A (Caliper LabChip electrophoretic separation of fluorescent peptide substrate and phosphorylated product)
Format: biochemical
Details: Assay A; 20 μM ATP, 40 min incubation; read-out: SGK1 IC50

IC50 [nM]	Structure (SMILES)
5	COC(=O)N1CC=C(c2cc(N3CCC[C@@H](NC(=O)c4sc(Cl)cc4OC4CNC4)C3)c3c(N)ncnn23)C1 [Example 568, Methyl (R)-3-(4-amino-5-(3-(3-(azetidin-3-yloxy)-5-chlorothiophene-2-carboxamido)piperidin-1-yl)pyrrolo[2,1-f][1,2,4]triazin-7-yl)-2,5-dihydro-1H-pyrrole-1-carboxylate]
5	CC(=O)N1CC=C(c2cc(N3CCC[C@@H](NC(=O)c4csc(Cl)c4)C3)c3c(N)ncnn23)C1 [Example 719]
6	CC(=O)N1CC=C(c2cc(N3CCC[C@@H](NC(=O)c4sc(C(F)F)cc4OC4CCN(C)CC4)C3)c3c(N)ncnn23)C1 [Example 438, (R)—N-(1-(7-(1-acetyl-2,5-dihydro-1H-pyrrol-3-yl)-4-aminopyrrolo[2,1-f][1,2,4]triazin-5-yl)piperidin-3-yl)-5-(difluoromethyl)-3-((1-methylpiperidin-4-yl)oxy)thiophene-2-carboxamide]
50	CC(=O)N1CC=C(c2cc(N3CCC[C@@H](NC(=O)c4sc(Cl)cc4OC4CCN(C5CC5)CC4)C3)c3c(N)ncnn23)C1 [Example 615, (R)—N-(1-(7-(1-acetyl-2,5-dihydro-1H-pyrrol-3-yl)-4-aminopyrrolo[2,1-f][1,2,4]triazin-5-yl)piperidin-3-yl)-5-chloro-3-((1-cyclopropylpiperidin-4-yl)oxy)thiophene-2-carboxamide]
6	CC(=O)N1CC=C(c2cc(N3CCC[C@@H](NC(=O)c4sc(Cl)cc4OC4CCN(C)CC4F)C3)c3c(N)ncnn23)C1 (single isomer, unassigned) [Example 600]
3	CC(=O)N1CC=C(c2cc(N3CCCC(NC(=O)c4sc(Cl)cc4OC4CCNC(C)C4)C3)c3c(N)ncnn23)C1 (single isomer, unassigned) [Example 622]
2	COC(=O)N1CC=C(c2cc(N3CCC[C@@H](NC(=O)c4sc5ccccc5c4OC4CCN(CCO)CC4)C3)c3c(N)ncnn23)C1 [Example 660, methyl (R)-3-(4-amino-5-(3-(3-((1-(2-hydroxyethyl)piperidin-4-yl)oxy)benzo[b]thiophene-2-carboxamido)piperidin-1-yl)pyrrolo[2,1-f][1,2,4]triazin-7-yl)-2,5-dihydro-1H-pyrrole-1-carboxylate]
322	CC(=O)N1CC=C(c2cc(N3CCC[C@@H](NC(=O)c4sc(C(F)F)cc4C4CCN(C(C)C)C4)C3)c3c(N)ncnn23)C1 (stereo partly drawn) [Example 407, N-((R)-1-(7-(1-acetyl-2,5-dihydro-1H-pyrrol-3-yl)-4-aminopyrrolo[2,1-f][1,2,4]triazin-5-yl)piperidin-3-yl)-5-(difluoromethyl)-3-(1-isopropylpyrrolidin-3-yl)thiophene-2-carboxamide]
6	CC(=O)N1CC=C(c2cc(N3CCC[C@@H](NC(=O)c4ccc(Cl)s4)C3)c3c(N)ncnn23)C1 [Example 731, (R)-N-(1-(7-(1-acctyl-2,5-dihydro-1H-pyrrol-3-yl)-4-aminopyrrolo[2,1-f][1,2,4]triazin-5-yl)piperidin-3-yl)-5-chlorothiophene-2-carboxamide]
5	COC(=O)N1CC=C(c2cc(N3CCCC(NC(=O)c4sc(Cl)cc4OC4CCNC(C)(C)C4)C3)c3c(N)ncnn23)C1 (single isomer, unassigned) [Example 629]
3	CC(=O)N1CC=C(c2cc(N3CCC[C@@H](NC(=O)c4sc(Cl)cc4OC4CCNCC4F)C3)c3c(N)ncnn23)C1 (stereo partly drawn) [Example 602, N-((R)-1-(7-(1-acetyl-2,5-dihydro-1H-pyrrol-3-yl)-4-aminopyrrolo[2,1-f][1,2,4]triazin-5-y1)piperidin-3-y1)-5-chloro-3-((3-fluoropiperidin-4-yl)oxy)thiophone-2-carboxamide]

The remaining lines, values behind:

Structure (SMILES)	IC50 [nM]
CS(=O)(=O)N1CC=C(c2cc(N3CCC[C@@H](NC(=O)c4ccccc4)C3)c3c(N)ncnn23)C1 [Example 113, (R)—N-(1-(4-amino-7-(1-(methylsulfonyl)-2,5-dihydro-1H-pyrrol-3-yl)pyrrolo[2,1-f][1,2,4]triazin-5-yl)piperidin-3-yl)benzamide, TFA]	23
Cc1cc(C(=O)N[C@@H]2CCCN(c3cc(-c4ccc(S(C)(=O)=O)cc4)n4ncnc(N)c34)C2)on1 [Example 63, (R)-N-(1-(4-amino-7-(4-(methylsulfonyl)phenyl)pyrrolo[2,1-f][1,2,4]triazin-5-yl)piperidin-3-yl)-3-methylisoxazole-5-carboxamide, TFA]	105
CC(=O)N1CC=C(c2cc(N3CCC[C@@H](NC(=O)c4sc5ccccc5c4OC4CN(C(=O)OC(C)(C)C)C4)C3)c3c(N)ncnn23)C1 [Example 673, tert-butyl (R)-3-((2-((1-(7-(1-acetyl-2,5-dihydro-1H-pyrrol-3-yl)-4-aminopyrrolo [2,1-f][1,2,4]triazin-5-yl)piperidin-3-yl)carbamoyl)benzo[b]thiophen-3-yl)oxy)azetidine-1-carboxylate]	96
Nc1ncnn2c(-c3ccc(=O)n(CC(F)F)c3)cc(N3CCC[C@@H](NC(=O)c4cc(-c5ccccc5)n[nH]4)C3)c12 [Example 504, (R)-N-(1-(4-amino-7-(1-(2,2-difluoroethyl)-6-oxo-1,6-dihydropyridin-3-yl)pyrrolo[2,1-f][1,2,4]triazin-5-yl)piperidin-3-yl)-3-phenyl-1H-pyrazole-5-carboxamide]	2
COC(=O)N1CC=C(c2cc(N3CCC[C@@H](NC(=O)c4cc5cc(F)ccc5[nH]4)C3)c3c(N)ncnn23)C1 [Example 499, methyl (R)-3-(4-amino-5-(3-(5-fluoro-1H-indole-2-carboxamido)piperidin-1-yl)pyrrolo[2,1-f][1,2,4]triazin-7-yl)-2,5-dihydro-1H-pyrrole-1-carboxylate]	121
COc1cc(C(=O)N[C@@H]2CCCN(c3cc(-c4ccncc4)n4ncnc(N)c34)C2)ccn1 [Example 127, N-[(3R)-1-[4-amino-7-(pyridin-4-yl)pyrrolo[2,1-f][1,2,4]triazin-5-yl]piperidin-3-yl]-2-methoxypyridine-4-carboxamide]	5
Nc1ncnn2c(-c3ccc(N4CCOCC4)cc3)cc(N3CCC[C@@H](NC(=O)c4ccc(Cl)s4)C3)c12 [Example 223, (R)-N-(1-(4-amino-7-(4-morpholinophenyl)pyrrolo [2,1-f][1,2,4]triazin-5-yl)piperidin-3-yl)-5-chlorothiophene-2-carboxamide, TFA]	199
CS(=O)(=O)c1ccc(-c2cc(N3CCC[C@@H](NC(=O)c4ccc(Cl)s4)C3)c3c(N)ncnn23)cn1 [Example 226, N-[(3R)-1-[4-amino-7-(6-methanesulfonylpyridin-3-yl)pyrrolo[2,1-f][1,2,4]triazin-5-yl]piperidin-3-yl]-5-chlorothiophene-2-carboxamide]	2
Nc1ncnn2c(-c3ccnc(C(F)F)c3)cc(N3CCC[C@@H](NC(=O)c4sc(C(F)F)cc4OCCN4CCOCC4)C3)c12 [Example 337, (R)—N-(1-(4-amino-7-(2-(difluoromethyl)pyridin-4-yl)pyrrolo[2,1-f][1,2,4]triazin-5-yl)piperidin-3-yl)-5-(difluoromethyl)-3-(2-morpholinoethoxy)thiophene-2-carboxamide]	14
Nc1ncnn2c(-c3ccnc(F)c3)cc(N3CCC[C@@H](NC(=O)c4ccsc4)C3)c12 [Example 155, (R)-N-(1-(4-amino-7-(2-fluoropyridin-4-yl)pyrrolo[2,1-f][1,2,4]triazin-5-yl)piperidin-3-yl)thiophone-3-carboxamide]	2
CC(=O)N1CC=C(c2cc(N3CCC[C@@H](NC(=O)C4=NN(c5ccccc5)C(=O)C4)C3)c3c(N)ncnn23)C1 [Example 459, (R)-N-(1-(7-(1-acetyl-2,5-dihydro-1H-pyrrol-3-yl)-4-aminopyrrolo[2,1-f][1,2,4]triazin-5-yl)piperidin-3-yl)-5-oxo-1-phenyl-4,5-dihydro-1H-pyrazole-3-carboxamide]	392
CS(=O)(=O)c1ccc(-c2cc(N3CCC[C@@H](NC(=O)c4ccc5c(c4)CC5)C3)c3c(N)ncnn23)cc1 [Example 83, (R)-N-(1-(4-amino-7-(4-(methylsulfonyl)phenyl)pyrrolo[2,1-f][1,2,4]triazin-5-yl)piperidin-3-yl)bicyclo[4.2.0]octa-1(6),2,4-triene-3-carboxamide, TFA]	48
CC(=O)N1CC=C(c2cc(N3CCC[C@@H](NC(=O)c4ccnc(OCCN5CCN(C)CC5)c4)C3)c3c(N)ncnn23)C1 [Example 713]	59
CC(C)N1CC2(CC(Oc3cc(Cl)sc3C(=O)N[C@@H]3CCCN(c4cc(-c5ccc(C#N)c(F)c5)n5ncnc(N)c45)C3)C2)C1 [Example 631, (R)—N-(1-(4-amino-7-(4-cyano-3-fluorophenyl)pyrrolo[2,1-f][1,2,4]triazin-5-yl)piperidin-3-yl)-5-chloro-3-((2-isopropyl-2-azaspiro[3.3]heptan-6-yl)oxy)thiophene-2-carboxamide]	3
Nc1ncnn2c(-c3cn(CCC(=O)O)nn3)cc(N3CCC[C@@H](NC(=O)c4ccc(Cl)s4)C3)c12 [Example 864, (R)-3-(4-(4-amino-5-(3-(5-chlorothiophene-2-carboxamido)piperidin-1-yl)pyrrolo[2,1-f][1,2,4]triazin-7-yl)-1H-1,2,3-triazol-1-yl)propanoic acid]	120
Cc1nc(OCCN(C)C)c(C(=O)N[C@@H]2CCCN(c3cc(-c4ccc(C#N)nc4)n4ncnc(N)c34)C2)s1 [Example 354, (R)-N-(1-(4-amino-7-(6-cyanopyridin-3-yl)pyrrolo[2,1-f][1,2,4]triazin-5-yl)piperidin-3-yl)-4-(2-(dimethylamino)ethoxy)-2-methylthiazole-5-carboxamide]	6
